Assay results from patent US6844443B2, “Benzimidazole derivatives, their production and use” (Takeda Pharmaceutical Company, Ltd., priority 1990, dated 2005).

Key:
A II receptor = target: T1, A II receptor (Bos taurus, UniProt P25104); assay: Inhibition of binding of angiotensin II to angiotensin receptor (radioreceptor assay); design: species or system bovine; Radioreceptor Assay 1 × 10^−7M / Radioreceptor Assay 1 × 10^−6M: unit not given here; details: for inhibition at 1 µM / inhibition at 0.1 µM: 1 h; for inhibition at 1 µM / Radioreceptor Assay 1 × 10^−6M / Radioreceptor Assay 1 × 10^−7M: inhibition of 125I-A II binding, bovine adrenal cortex membrane fraction; for inhibition at 1 µM / Radioreceptor Assay 1 × 10^−6M: compound 1 × 10^−6M; for inhibition at 0.1 µM: read-out: Radioreceptor Assay 1 × 10^−7M; for Radioreceptor Assay 1 × 10^−7M: compound 1 × 10^−7M
T1 construct: An A II receptor membrane fraction was prepared from bovine adrenal cortex; from tissue; host or cells: bovine adrenal cortex membrane fraction
T1 sequence (P25104 1-359): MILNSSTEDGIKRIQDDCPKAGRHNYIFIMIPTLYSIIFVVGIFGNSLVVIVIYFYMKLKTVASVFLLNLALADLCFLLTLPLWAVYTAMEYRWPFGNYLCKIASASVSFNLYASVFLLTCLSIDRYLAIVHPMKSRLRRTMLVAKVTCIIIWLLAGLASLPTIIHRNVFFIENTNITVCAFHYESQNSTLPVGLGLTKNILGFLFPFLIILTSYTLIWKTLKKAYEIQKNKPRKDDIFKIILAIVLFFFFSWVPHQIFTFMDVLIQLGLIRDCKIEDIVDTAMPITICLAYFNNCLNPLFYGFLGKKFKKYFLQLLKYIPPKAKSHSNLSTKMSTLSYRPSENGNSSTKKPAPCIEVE
Procedure: An experiment of inhibition on the binding of angiotensin II (A II) to A II receptor was conducted by modifying the method of Douglas et al. [Endocrinology, 102, 685-696 (1978)]. An A II receptor membrane fraction was prepared from bovine adrenal cortex.
The compound of the present invention (10 ^−6M or 10^−7M) and ^125I-angiotensin II (^125I-A II) (1.85 kBq/50 μl ) were added to the receptor membrane fraction, and the mixture was incubated at room temperature for one hour. The receptor-bound and free ^125I-A II were separated through a filter (Whatman GF/B filter), and the radioactivity of ^125I-A II bound to the receptor was measured.

[1] = system: A II-induced pressor action; assay: Inhibitory effect on pressor action of A II after oral administration; assay type: in vivo, Jcl: SD rats; details: for inhibition in vivo at 3 mg/kg: Rattus norvegicus, po, read-out: Pressor Response to A II (p.o.) 3 mg/kg; for Pressor Response to A II (p.o.) 3 mg/kg: percent inhibition of pressor action of i.v. A II (100 ng/kg), 3 mg/kg p.o., rats
Procedure: Jcl: SD rats (9 week old, male) were employed. On the previous day of the experiment, these animals were applied with cannulation into the femoral artery and vein under anesthesia with pentobarbital Na. The animals were fasted but allowed to access freely to drinking water until the experiment was started. Just on the day of conducting the experiment, the artery cannula was connected with a blood-pressure transducer, and the average blood pressure was recorded by means of polygraph. Before administration of the drug, the pressor action due to intravenous administration of A II (100 ng/kg) as the control was measured. The drugs were orally administered, then, at each point of the measurement, A II was administered intravenously, and the pressor action was similarly measured. By comparing the pressor action before and after administration of the drug, the percent inhibition by the drug on A II-induced pressor action was evaluated.

Row | inhibition at 1 µM (A II receptor) [%] | inhibition at 0.1 µM (A II receptor) [%] | Radioreceptor Assay 1 × 10^−6M (A II receptor) | Radioreceptor Assay 1 × 10^−7M (A II receptor) | melting point | Compound | inhibition in vivo at 3 mg/kg [1] [%] | Pressor Response to A II (p.o.) 3 mg/kg [1]
1 | 81 | 42 | – | – | – | CCOC(=O)OC(C)OC(=O)c1cccc2nc(OCC)n(Cc3ccc(-c4ccccc4-c4nnn[nH]4)cc3)c12 (stereo not shown) [Example 54] | ≥ 70 | –
2 | – | – | 81 | 44 | – | CCOc1nc2cccc(C(=O)OCOC(=O)/C=C/c3ccccc3)c2n1Cc1ccc(-c2ccccc2-c2nnn[nH]2)cc1 [Example 60] | – | +++ (+++ ≧ 70%)
3 | – | – | – | – | 146 to 147 °C | CCOc1nc2cccc(C(=O)OCOC(=O)/C=C/c3ccccc3)c2n1Cc1ccc(-c2ccccc2-c2nnn[nH]2)cc1 [Working Example 60, (E)-cinnamoyloxymethyl 2-ethoxy-1-[[2′-(1 H-tetrazol-5-yl)biphenyl-4-yl]methyl]benzimidazole-7-carboxylate] | – | –
4 | – | – | – | – | 122 to 125 °C (dec.) | CCOc1nc2cccc(C(=O)OCc3oc(=O)oc3C)c2n1Cc1ccc(-c2ccccc2-c2nnn[nH]2)cc1 [Working Example 49, (5-Methyl-2-oxo-1,3-dioxolen-4-yl)methyl 2-ethoxy-1-[[2′-(1 H-tetrazol-5-yl)biphenyl-4-yl]methyl]benzimidazole-7-carboxylate] | – | –
5 | – | – | – | – | 140 to 142 °C | CCOc1nc2cccc(C(=O)OCOC(=O)C3CCCCC3)c2n1Cc1ccc(-c2ccccc2-c2nnn[nH]2)cc1 [Working Example 58, Cyclohexylcarbonyloxymethyl 2-ethoxy-1-[[2′-(1 H-tetrazol-5-yl)biphenyl-4-yl]methyl]benzimidazole-7-carboxylate] | – | –
6 | 89 | 54 | – | – | – | CCOc1nc2cccc(C(=O)OCOC(=O)C3CCCC3)c2n1Cc1ccc(-c2ccccc2-c2nnn[nH]2)cc1 [Example 61] | ≥ 70 | –
7 | – | – | – | – | 96 to 100 °C | CCCC(=O)OCOC(=O)c1cccc2nc(OCC)n(Cc3ccc(-c4ccccc4-c4nnn[nH]4)cc3)c12 [Working Example 52, Butyryloxymethyl 2-ethoxy-1-[[2′-(1 H-tetrazol-5-yl)biphenyl-4-yl]methyl]benzimidazole-7-carboxylate] | – | –
8 | 85 | 55 | – | – | – | CCOc1nc2cccc(C(=O)OCOC(=O)C(C)C)c2n1Cc1ccc(-c2ccccc2-c2nnn[nH]2)cc1 [Example 53] | ≥ 70 | –
9 | 84 | 44 | – | – | – | CCOc1nc2cccc(C(=O)OCOC(=O)CC)c2n1Cc1ccc(-c2ccccc2-c2nnn[nH]2)cc1 [Example 51] | ≥ 70 | –
10 | 92 | 63 | – | – | – | CCOc1nc2cccc(C(=O)OCOC(C)=O)c2n1Cc1ccc(-c2ccccc2-c2nnn[nH]2)cc1 [Example 50] | ≥ 70 | –
11 | 84 | 55 | – | – | – | CCOc1nc2cccc(C(=O)OCOC(=O)C3CCCCC3)c2n1Cc1ccc(-c2ccccc2-c2nnn[nH]2)cc1 [Example 58] | ≥ 70 | –
12 | 84 | 48 | – | – | – | CCCC(=O)OCOC(=O)c1cccc2nc(OCC)n(Cc3ccc(-c4ccccc4-c4nnn[nH]4)cc3)c12 [Example 52] | ≥ 70 | –
13 | 91 | 63 | – | – | – | CCOc1nc2cccc(C(=O)OC(C)OC(C)=O)c2n1Cc1ccc(-c2ccccc2-c2nnn[nH]2)cc1 (stereo not shown) [Example 55] | ≥ 70 | –
14 | – | – | 61 | 19 | – | CCNc1nc2cccc(C(=O)OC(C)OC(=O)OC3CCCCC3)c2n1Cc1ccc(-c2ccccc2-c2nnn[nH]2)cc1 (stereo not shown) [Example 63] | – | +++ (+++ ≧ 70%)
15 | 87 | 48 | – | – | – | CCNc1nc2cccc(C(=O)OCOC(=O)C(C)(C)C)c2n1Cc1ccc(-c2ccccc2-c2nnn[nH]2)cc1 [Example 62] | ≥ 70 | –
16 | 79 | 41 | – | – | – | CNc1nc2cccc(C(=O)O)c2n1Cc1ccc(-c2ccccc2-c2nnn[nH]2)cc1 [Example 57] | – | –

Further lines, the compound ahead of its results:

Row | Compound | inhibition at 1 µM (A II receptor) [%] | inhibition at 0.1 µM (A II receptor) [%] | Radioreceptor Assay 1 × 10^−6M (A II receptor) | Radioreceptor Assay 1 × 10^−7M (A II receptor) | melting point | inhibition in vivo at 3 mg/kg [1] [%] | Pressor Response to A II (p.o.) 3 mg/kg [1]
17 | CCCNc1nc2cccc(C(=O)OCC)c2n1Cc1ccc(-c2ccccc2-c2nnn[nH]2)cc1 [Example 41] | 57 | 45 | – | – | – | – | –
18 | CCOc1nc2cccc(C(=O)OC(C)OC(=O)OC3CCCCC3)c2n1Cc1ccc(-c2ccccc2-c2nnn[nH]2)cc1 (stereo not shown) [Example 44] | – | – | 77 | 32 | – | – | +++ (+++ ≧ 70%)
19 | CCCOc1nc2cccc(C(=O)O)c2n1Cc1ccc(-c2ccccc2-c2nnn[nH]2)cc1 [Example 31] | 79 | 40 | – | – | – | ≥ 70 | –
20 | COC(=O)c1cccc2nc(OC)n(Cc3ccc(-c4ccccc4-c4nnn[nH]4)cc3)c12 [Example 45] | 67 | 17 | – | – | – | ≥ 70 | –
21 | CCOc1nc2cccc(C(=O)OC)c2n1Cc1ccc(-c2ccccc2-c2nnn[nH]2)cc1 [Example 39] | 89 | 58 | – | – | – | ≥ 70 | –
22 | CCOC(=O)c1cccc2nc(SC)n(Cc3ccc(-c4ccccc4-c4nnn[nH]4)cc3)c12 [Example 33] | 26 | 2 | – | – | – | 30 to 50 | –
23 | CCCOc1nc2cccc(C(=O)OCC)c2n1Cc1ccc(-c2ccccc2-c2nnn[nH]2)cc1 [Example 30] | 48 | 16 | – | – | – | ≥ 70 | –
24 | CSc1nc2cccc(C(=O)O)c2n1Cc1ccc(-c2ccccc2-c2nnn[nH]2)cc1 [Example 36] | 82 | 51 | – | – | – | ≥ 70 | –
25 | CCSc1nc2cccc(C(=O)O)c2n1Cc1ccc(-c2ccccc2-c2nnn[nH]2)cc1 [Example 37] | 80 | 41 | – | – | – | ≥ 70 | –
26 | CCCNc1nc2cccc(C(=O)O)c2n1Cc1ccc(-c2ccccc2-c2nnn[nH]2)cc1 [Example 48] | 92 | 67 | – | – | – | 50 to 70 | –
27 | CCCSc1nc2cccc(C(=O)OCC)c2n1Cc1ccc(-c2ccccc2-c2nnn[nH]2)cc1 [Example 35] | 32 | 7 | – | – | – | – | –
28 | COc1nc2cccc(C(=O)O)c2n1Cc1ccc(-c2ccccc2-c2nnn[nH]2)cc1 [Example 46] | 88 | 66 | – | – | – | ≥ 70 | –
29 | CCOC(=O)c1cccc2nc(SCC)n(Cc3ccc(-c4ccccc4-c4nnn[nH]4)cc3)c12 [Example 34] | 54 | 17 | – | – | – | ≥ 70 | –
30 | CCOc1nc2cccc(C(=O)O)c2n1Cc1ccc(-c2ccccc2-c2nnn[nH]2)cc1 [Example 29] | 91 | 61 | – | – | – | ≥ 70 | –
31 | CCNc1nc2cccc(C(=O)O)c2n1Cc1ccc(-c2ccccc2-c2nnn[nH]2)cc1 [Example 47] | – | – | 96 | 84 | – | – | +++ (+++ ≧ 70%)
32 | CCCSc1nc2cccc(C(=O)O)c2n1Cc1ccc(-c2ccccc2-c2nnn[nH]2)cc1 [Example 38] | 50 | 6 | – | – | – | ≥ 70 | –
33 | CCOc1nc2cccc(C(=O)OCc3oc(=O)oc3C)c2n1Cc1ccc(-c2ccccc2-c2nnn[nH]2)cc1 [Example 49] | 91 | 66 | – | – | – | ≥ 70 | –
34 | CCOc1nc2cccc(C(=O)OCOC(=O)C(C)(C)C)c2n1Cc1ccc(-c2ccccc2-c2nnn[nH]2)cc1 [Example 43] | – | – | 94 | 74 | – | – | +++ (+++ ≧ 70%)
35 | CCOC(=O)c1cccc2nc(OCC)n(Cc3ccc(-c4ccccc4-c4nnn[nH]4)cc3)c12 [Example 28] | 82 | 46 | – | – | – | ≥ 70 | –
